Source: patent US5210097A, “Xanthocillin X monomethyl ether derivative and antitumor agent containing the same” (Meiji Seika Kaisha Ltd., priority 1989, dated 1993)
≈ marks a conversion by molar mass, not a printed value.

Legend:
Meth-A solid tumor = assay: Inhibition of tumor growth in vivo (Meth-A solid tumor, Balb/c mouse); parameters: species or system murine (female Balb/c mouse); conditions: intraperitoneal, once a day for 4 days; for Tumor weight: tumor weighed two weeks after transplantation, mean ± standard deviation; for Inhibition of tumor growth: two weeks after transplantation, versus control
Method: The inhibition of tumor growth by the compounds of the present invention in vivo were evaluated in the following manner. 10^6 cells of Meth-A murine tumor cells were transplanted to the dorsal subcutaneous part of a female Balb/c mouse aged 6 weeks. On the next day of the transplantation, a test compound at each concentrations was intraperitoneally administered to the animal. The compound was suspended in a 1% solution of carboxymethyl cellulose (CMC) and thoroughly mixed ultrasonically. Alternately, it was thoroughly ground in a mortar and then suspended in a CMC solution. Thus a sample for injection was prepared. The test compound was administered once a day for 4 days continuously. To a control group, a 1% solution of CMC was administered once a day for 4 days continuously. Two weeks after the transplantation, the dorsal tumor was taken out and weighed to thereby determine the inhibition of tumor growth.

Meth-A cells = assay: Cytotoxicity in vitro (MTT assay, 3 days incubation); assay type: cell-based, murine; conditions: Mus musculus, 72 h, read-out: 50% inhibition concentration (IC50)
Method: The cytotoxic effect of each compound of the present invention in vitro was evaluated in the following manner. Dulbecco's modified MEM medium containing 10% (v/v) of fetal calf serum was used as a medium while Meth-A solid tumor was used as a tumor. The cytotoxic effect of each compound on this tumor was examined. Meth-A cells, which had been subcultured in a carbon dioxide gas incubator, were suspended in the above-mentioned medium so as to give a density of 5×10^4 cells/ml. 135 μl portions of the suspension thus obtained were poured into 96-well microtiter plates. Each test compound was dissolved in a small amount of DMF and diluted with Dulbecco's modified MEM medium to a predetermined concentration. 15 μl portions of test compound solutions at various concentrations were added thereto and then incubated in a carbon dioxide gas incubator for 3 days. After the completion of the incubation, the 50% inhibition concentration (IC50) was determined by the MTT assay method ["Igaku no Ayumi", vol. 128, 733-735 (1984)].

[1] = Acute toxicity, intraperitoneal; conditions: mouse, in vivo, ip, female Balb/c mice aged 7 weeks
Ehrich ascites tumor = conditions: cited from earlier work
[2] = system: conversion of arachidonic acid into prostaglandin H2; conditions: N. Kitahara et al., J. Antibiotics, 34, 1556-1561 (1981); cited from earlier work

Compound | IC50 (Meth-A cells) | LD50 [1] | Tumor weight (Meth-A solid tumor; 30 mg/kg/day) | Inhibition of tumor growth (Meth-A solid tumor; 30 mg/kg/day) | also measured
[C-]#[N+]C(=Cc1ccc(OC)cc1)C(=Cc1ccc(OCC(=O)OCC)cc1)[N+]#[C-] [Compound No. 1] | 0.64 µg/mL (≈ 1.65 µM) | 120 mg/kg |  |  | Tumor weight (Meth-A solid tumor; 10 mg/kg/day): 0.39 ± 0.08 g; Inhibition of tumor growth (Meth-A solid tumor; 10 mg/kg/day): 67.5%
[C-]#[N+]C(=Cc1ccc(OC)cc1)C(=Cc1ccc(OCc2ccccc2)cc1)[N+]#[C-] [Compound No. 2, 1-(4'-benzyloxyphenyl)-4-(4'-methoxyphenyl)-2,3-diisocyano-1,3-butadiene] | 0.7 µg/mL (≈ 1.78 µM) |  | 0.22 ± 0.04 g | 67.6% | 
[C-]#[N+]C(=Cc1ccc(OC)cc1)C(=Cc1ccc(OCCF)cc1)[N+]#[C-] [Compound No. 3, 1-[4'-(2"-fluoroethyl)oxyphenyl]-4-(4'-methoxyphenyl)-2,3-diisocyano-1,3-butadiene] | 1.5 µg/mL (≈ 4.31 µM) | > 120 mg/kg |  |  | 
[C-]#[N+]C(=Cc1ccc(OC)cc1)C(=Cc1ccc(OCCCCCC)cc1)[N+]#[C-] [Compound No. 4, 1-(4'-n-hexyloxyphenyl)-4-(4'-methoxyphenyl)-2,3-diisocyano-1,3-butadiene] |  |  | 0.27 ± 0.20 g | 71.9% | 
[C-]#[N+]C(=Cc1ccc(OC)cc1)C(=Cc1ccc(OCc2ccncc2)cc1)[N+]#[C-] [Compound No. 5, 1-[4'-(4"-pyridyl)methyloxyphenyl]-4-(4'-methoxyphenyl)-2,3-diisocyano-1,3-butadiene] | 0.7 µg/mL (≈ 1.78 µM) |  |  |  | 
[C-]#[N+]C(=Cc1ccc(OC)cc1)C(=Cc1ccc(OCc2ccccn2)cc1)[N+]#[C-] [Compound No. 6, 1-[4'-(2"-pyridyl)methyloxyphenyl]-4-(4'-methoxyphenyl)-2,3-diisocyano-1,3-butadiene] | 0.24 µg/mL (≈ 0.61 µM) | > 120 mg/kg |  |  | 
[C-]#[N+]C(=Cc1ccc(OC)cc1)C(=Cc1ccc(OCc2ccc(C)cc2)cc1)[N+]#[C-] [Compound No. 7, 1-[4'-(4"-toluyl)methyloxyphenyl]-4-(4'-methoxyphenyl)-2,3-diisocyano-1,3-butadiene] | 1.8 µg/mL (≈ 4.43 µM) |  | 0.60 ± 0.20 g | 68.4% | 
[C-]#[N+]C(=Cc1ccc(OC)cc1)C(=Cc1ccc(OC(=O)c2ccccc2)cc1)[N+]#[C-] [Compound No. 8, 1-(4'-benzoyloxyphenyl)-4-(4'-methoxyphenyl)-2,3-diisocyano-1,3-butadiene] | 1.7 µg/mL (≈ 4.18 µM) | > 300 mg/kg | 1.40 ± 0.30 g | 26.3% | 
[C-]#[N+]C(=Cc1ccc(OC)cc1)C(=Cc1ccc(OCc2ccc(Cl)cc2)cc1)[N+]#[C-] [Compound No. 9, 1-[4'-(4"-chlorophenyl)methyloxyphenyl]-4-(4'-methoxy-phenyl)-2,3-diisocyano-1,3-butadiene] | 1.8 µg/mL (≈ 4.22 µM) | > 300 mg/kg | 0.60 ± 0.50 g | 68.4% | 
[C-]#[N+]C(=Cc1ccc(O)cc1)C(=Cc1ccc(OC)cc1)[N+]#[C-] [xanthocillin X monomethyl ether, 1-(4'-hydroxyphenyl)-2,3-diisocyano-4-(4'-methoxyphenyl)-1,3-butadiene] |  |  |  |  | proliferation of Ehrich ascites tumor (Ehrich ascites tumor; during administration): would suppress the proliferation of Ehrich ascites tumor; proliferation of cancer cells after stopping the administration (Ehrich ascites tumor; immediately after stopping the administration): the cancer cells would proliferate again immediately after stopping the administration of this compound; inhibition of biosynthesis of prostaglandin or thromboxane [2]: would inhibit the biosynthesis of prostaglandin or thromboxane
